From paper PMC3961306, “Comparison of the Cancer Gene Targeting and Biochemical Selectivities of All Targeted Kinase Inhibitors Approved for Clinical Use” (PLoS ONE, 2014)
Read-outs that look alike come from different tables or passages of the source.

How the values were obtained:
Assay in all cases: Kinase profiling in a biochemical assay panel (mobility shift assays and ELISA), %-inhibition at 1 μM; selectivity entropy
[1] = molecular target: panel of more than 300 wild-type and mutant kinases (313 kinase panel) (Homo sapiens, UniProt O75676)
[2] = molecular target: panel of more than 300 wild-type and mutant kinases (313 kinase panel) (Homo sapiens, UniProt P23443)
[3] = molecular target: panel of more than 300 wild-type and mutant kinases (313 kinase panel) (Homo sapiens, UniProt P28482); conditions: kinase Erk2; compound at 1 μM
[4] = molecular target: T1, panel of more than 300 wild-type and mutant kinases (313 kinase panel) (Homo sapiens, UniProt P42680); conditions: kinase TEC; 1 μM
T1 sequence (P42680 1-631): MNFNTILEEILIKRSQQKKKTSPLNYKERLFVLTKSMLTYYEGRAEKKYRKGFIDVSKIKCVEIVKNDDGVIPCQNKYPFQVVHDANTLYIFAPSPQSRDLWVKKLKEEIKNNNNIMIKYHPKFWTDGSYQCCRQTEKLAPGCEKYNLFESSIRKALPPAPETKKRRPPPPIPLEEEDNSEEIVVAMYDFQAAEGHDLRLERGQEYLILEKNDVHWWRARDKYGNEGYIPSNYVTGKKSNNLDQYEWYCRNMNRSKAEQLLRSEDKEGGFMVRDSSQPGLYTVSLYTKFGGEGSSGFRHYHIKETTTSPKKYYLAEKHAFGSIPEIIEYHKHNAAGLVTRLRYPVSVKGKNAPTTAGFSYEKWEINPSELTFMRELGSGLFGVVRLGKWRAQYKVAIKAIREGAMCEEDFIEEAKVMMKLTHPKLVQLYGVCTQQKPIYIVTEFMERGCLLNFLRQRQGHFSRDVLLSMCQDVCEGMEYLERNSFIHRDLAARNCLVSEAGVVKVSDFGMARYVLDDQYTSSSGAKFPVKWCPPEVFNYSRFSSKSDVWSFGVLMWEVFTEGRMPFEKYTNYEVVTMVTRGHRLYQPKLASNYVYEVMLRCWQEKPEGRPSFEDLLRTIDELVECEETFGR

[5] = molecular target: panel of more than 300 wild-type and mutant kinases (313 kinase panel) (Homo sapiens, UniProt P53355); conditions: kinase DAPK1; compound at 1 μM
[6] = molecular target: panel of more than 300 wild-type and mutant kinases (313 kinase panel) (Homo sapiens, UniProt P57059); conditions: kinase SIK; 1 μM
[7] = molecular target: panel of more than 300 wild-type and mutant kinases (313 kinase panel) (Homo sapiens, UniProt Q16512); conditions: kinase PKN1; 1 μM
[8] = molecular target: panel of more than 300 wild-type and mutant kinases (313 kinase panel) (Homo sapiens, UniProt Q86Z02); conditions: kinase HIPK1; compound at 1 μM
[9] = molecular target: T2, panel of more than 300 wild-type and mutant kinases (313 kinase panel) (Homo sapiens, UniProt Q9Y2U5)
T2 sequence (Q9Y2U5 1-619): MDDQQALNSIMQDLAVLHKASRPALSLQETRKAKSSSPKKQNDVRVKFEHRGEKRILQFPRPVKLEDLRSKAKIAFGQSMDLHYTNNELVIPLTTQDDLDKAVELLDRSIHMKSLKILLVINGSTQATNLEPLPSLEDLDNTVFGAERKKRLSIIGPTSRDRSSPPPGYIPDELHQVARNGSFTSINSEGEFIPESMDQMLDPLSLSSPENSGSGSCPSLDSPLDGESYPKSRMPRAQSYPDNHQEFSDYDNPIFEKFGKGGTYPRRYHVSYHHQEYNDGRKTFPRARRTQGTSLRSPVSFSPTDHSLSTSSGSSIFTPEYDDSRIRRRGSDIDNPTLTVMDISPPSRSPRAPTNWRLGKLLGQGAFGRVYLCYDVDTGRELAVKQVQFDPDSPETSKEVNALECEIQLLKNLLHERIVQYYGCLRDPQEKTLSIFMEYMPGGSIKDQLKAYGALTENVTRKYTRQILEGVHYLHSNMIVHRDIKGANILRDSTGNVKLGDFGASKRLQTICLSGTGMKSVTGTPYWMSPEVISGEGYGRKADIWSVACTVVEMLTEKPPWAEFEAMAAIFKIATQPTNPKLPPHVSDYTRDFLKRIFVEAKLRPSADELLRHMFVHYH

[10] = tested on: panel of more than 300 wild-type and mutant kinases (313 kinase panel)
[11] = kinase MAP3K2, compound at 1 μM
[12] = kinase EGFR(d746-750), compound at 1 μM
[13] = kinase EGFR(d746-750/T790M), compound at 1 μM
[14] = kinase EML4-ALK, compound at 1 μM

Row | SMILES | %-inhibition of MSK2 ([1]; kinase MSK2, 1 μM) | %-inhibition of p70S6K ([2]; kinase p70S6K, 1 μM) | %-inhibition of Erk2 [3] | %-inhibition of TEC [4] | %-inhibition of DAPK1 [5] | %-inhibition of SIK [6] | %-inhibition of PKN1 [7] | %-inhibition of HIPK1 [8] | %-inhibition of MAP3K2 [9, 11] | %-inhibition of EGFR(d746-750) [10, 12] | %-inhibition of EGFR(d746-750/T790M) [10, 13] | %-inhibition of EML4-ALK [10, 14] | %-inhibition of LYNb ([10]; kinase LYNb, compound at 1 μM) | %-inhibition of NPM1-ALK ([10]; kinase NPM1-ALK, 1 μM) | %-inhibition of PKCβ2 ([10]; kinase PKCβ2, 1 μM) | %-inhibition of SRM ([10]; kinase SRM, 1 μM) | %-inhibition of TAK1-TAB1 ([10]; kinase TAK1-TAB1, 1 μM) | other results
1 | CCCS(=O)(=O)Nc1ccc(F)c(C(=O)c2c[nH]c3ncc(-c4ccc(Cl)cc4)cc23)c1F [vemurafenib] | -1% | 9% | -4.58% | -0.191% | -0.115% | 24% | -0.378% | -4.72% | 21% | 2.81% | 4.62% | -1.53% | 62% | -1.72% | -3% | 102% | 9% | –
2 | N#CC[C@H](C1CCCC1)n1cc(-c2ncnc3[nH]ccc23)cn1 [ruxolitinib] | – | – | -5.62% | 18% | 71% | 22% | 50% | 3% | – | – | – | – | – | – | – | – | – | %-inhibition of MSK2 ([1]; 1 µM): 4.62%; %-inhibition of p70S6K ([2]; 1 µM): 20%; %-inhibition of MAP3K2 ([9]; 1 µM): 75%; %-inhibition of NPM1-ALK [10]: 65%; %-inhibition of TAK1-TAB1 [10]: 6%; %-inhibition of EGFR(d746-750) ([10]; 1 µM): -1.14%; %-inhibition of EGFR(d746-750/T790M) ([10]; 1 µM): 1.32%; %-inhibition of EML4-ALK ([10]; 1 µM): 64%; %-inhibition of LYNb ([10]; 1 µM): 8%; %-inhibition of PKCβ2 ([10]; 1 µM): 5%; %-inhibition of SRM ([10]; 1 µM): 4.69%
3 | CC(=O)Nc1cccc(-n2c(=O)n(C3CC3)c(=O)c3c(Nc4ccc(I)cc4F)n(C)c(=O)c(C)c32)c1 [trametinib] | -4.75% | -1.39% | -5% | -7.53% | -6% | -3% | 3.71% | -3.71% | 0.801% | -2.58% | 1.72% | -2.51% | -2.58% | -1.79% | -1.58% | -4% | 5.47% | –
4 | CO[C@H]1C[C@@H]2CC[C@@H](C)[C@@](O)(O2)C(=O)C(=O)N2CCCC[C@H]2C(=O)O[C@H]([C@H](C)C[C@@H]2CC[C@@H](OCCO)[C@H](OC)C2)CC(=O)[C@H](C)/C=C(\C)[C@@H](O)[C@@H](OC)C(=O)[C@H](C)C[C@H](C)/C=C/C=C/C=C/1C [everolimus] | -7% | -13% | -7.44% | -4% | -15% | -5.51% | 2.6% | -6% | 7.56% | -4% | -5% | -3.62% | -1.66% | -5.62% | -9% | 0.151% | 1.54% | –
